Data as given in patent US6537804B1, “BCR-ABL directed compositions and uses for inhibiting Philadelphia chromesome stimulated cell growth” (Board of Regents, The University of Texas Systems, priority 1995, dated 2003).

Legend:
Type in all cases: cell-based, human
p160 BCR = test: Immunokinase assay with anti-BCR (1256-1271) on oligonucleotide treated SUP-B15 cells
Method: (§1) SUP B15 cells were treated with anti-sense BCR oligonucleotides as in FIG. 12. Equal amounts of cells processed from sense and antisense treated cultures were harvested at day 7. Cells were analyzed for Bcr protein and Bcr/Bcr-Abl complexes by assaying with an antibody to the carboxy terminal of Bcr, as described (Liu et al., 1993). Lane 1 is an SDS gel pattern of the sense treated culture; lane 2 is the assay performed with peptide-blocked antibody. Lane 3 is the pattern from anti-sense treated culture; lane 4 is the peptide-blocked control. […] Quantitation measurements indicate that the level of Bcr protein was reduced about 10-fold by antisense treatment compared to sense, when normalized for the amount of Abl protein in the cultures.
The effects of the sense and antisense 3′ BCR oligonucleotides were tested on BCR expression in SUP-B15 cells, a cell line derived from a Ph^1-positive acute lymphocytic leukemia patient that expresses p185 BCR-ABL. Immunokinase assays were performed with anti-BCR (1256-1271) peptide antibody (the antibody detects Bcr proteins but not Bcr-Abl proteins) to determine the level of BCR expression in B15 cells after 7 days treatment with either the sense or antisense 3′ BCR oligonucleotides (FIG. 13, lanes 1 and 3).
(§2) These antibodies detect Bcr directly but not Bcr-Abl protein. However because Bcr can complex with Bcr-Abl, this assay also detects Bcr-Abl which is co-precipitated along with Bcr.
Incubation of these immune complexes with labeled ATP causes tyrosine phosphorylation of Bcr by Bcr-Abl and autophosphorylation of Bcr-Abl (Liu et al., 1993). […] Using Abl Western blot data as an internal control for mass, the specific reduction in Bcr is estimated to be about 10-fold.

M3.16 cells = test: Growth of M3.16 cells, trypan blue exclusion; settings: DMEM 10% FCS, 10 μM at day 1, half at day 5, light microscopy at day 9
Method: FIG. 20B, M3.16 cells cultured in 10% FCS containing DMEM media with either the 3′ BCR antisense oligonucleotides (open squares) or the sense oligonucleotide (closed squares) as above. Oligonucleotides were added at day 1 at a final concentration of 10 μM and added again at day 5 at half of the initial concentration. Cell viability was determined by trypan blue dye exclusion. The data are the mean +/−SEM of a triplicate analysis.
For this particular study, the cell number was followed up for a longer period of time (11 days) and oligonucleotides were added again at day 5 at half of the initial concentration.

c-Abl = test: Western blotting with anti-Abl monoclonal antibody 8E9 of treated SUP-B15 cells
Method: (§3) SUP-B15 cells express p185 BCR-ABL; they were derived from a patient with Philadelphia chromosome-positive ALL. One-tenth of the cells harvested in the study shown in FIG. 13 was assayed for Bcr-Abl expression by Western blotting with the anti-Abl monoclonal antibody 8E9. […] Similarly, the Abl protein was reduced about 26% in the anti-sense treated culture compared to sense. Quantitation was done by a densitometer SI unit (Molecular Dynamics).
Using c-Abl as an internal control, the actual reduction of p160 BCR in B15 cells by the antisense treatment is about 10 fold.

P185 BCR-ABL = test: as above
Method: as §3
(§4) In this study, equal amounts of the sense and the antisense oligonucleotide treated B15 cells were analyzed.

SUP-B15 cells [1] = test: Growth of SUP-B15 cells, trypan blue exclusion
Method: FIG. 20A, B15 cells cultured in 20% FCS containing RPMI media with either the 3′ BCR antisense oligonucleotides (10 μM at day 1) (open squares) or the sense oligonucleotides (10 μM at day 1) (closed squares).
The biological effects of the 3′ BCR antisense oligonucleotide treatment were tested on SUP-B15 cells. SUP-B15 cells were seeded in triplicate wells at a concentration of 1.6×10^5 cells/ml in a 200 μl volume of RPMI media supplemented with 20% FCS. Oligonucleotides were added to the cells at a final concentration of 10 μM. Cell number was monitored by trypan blue exclusion assay for 9 days. The mean cell number of the triplicates was determined each day (FIG. 20A).

SUP-B15 cells [2] = test: Survival of SUP-B15 cells in low serum, trypan blue exclusion; settings: 5% FCS, 10 μM
Method: SUP-B15 cells (2×10^6 cells) were maintained in RPMI medium containing 5% fetal calf serum. Cells will not grow under these conditions and will slowly die off since cell growth requires 20% serum. Cells were treated with the 3′ BCR anti-sense (open squares) or sense oligo (closed squares) at a concentration of 10 μM. The number of viable cells was determined by trypan blue dye exclusion. The data are expressed as the mean (+/−SEM) of three replicates.
B15 cells were cultured in a low serum containing media [5% fetal calf serum (FCS)]. These cells normally require 20% FCS. A batch of B15 cells (2.2×10^6/ml) was cultured in RPMI containing 5% FCS. 200 μl of this suspension was seeded into each well of a 96 well culture plate. Either the antisense or sense oligonucleotides were added to the culture at a final concentration of 10 μM. The cell numbers were determined as an average of the triplicates and plotted in FIG. 14.

[3] = system: p160 BCR/p185 BCR-ABL complexes; test: Co-precipitated Bcr-Abl in anti-BCR (1256-1271) immunokinase assay of treated SUP-B15 cells; settings: antisense compared to sense treated
Method: as §1, §4, §2

“5′ATCATCACCGACACATCC 3′ (phosphotriester linkages at both ends, further chemistry not given here) [3′ BCR antisense oligonucleotide]” was tested, and the “Level of BCR protein, antisense compared with sense treated cells” value (p160 BCR; 7 days treatment) was “much lower levels”, the “Reduction of p160 BCR normalized for the amount of Abl protein (c-Abl as internal control)” value (p160 BCR; day 7, antisense compared to sense) was “about 10 fold” and the “Reduction of p160 BCR, antisense versus sense treated cells” value (p160 BCR; day 7, densitometer quantitation of FIG. 13 lanes 1 and 3) was “about 14 times”. For the same substance, the “Reduction of the amount of Bcr by anti-sense” value (p160 BCR; seven days, phosphorimager analyses) was “about 14 fold”, the “Confluence compared to sense treated cells” value (M3.16 cells) was “more confluent” and the “Reduction in Abl protein, anti-sense compared to sense” value (c-Abl; Western blot 8E9, densitometer) was “about 26%”. For the same substance, the “Reduction of c-Abl level, antisense versus sense treated cells” value (c-Abl; quantitation of FIG. 12) was ~1.35 fold, the “Reduction in Bcr-Abl protein, anti-sense compared to sense” value (P185 BCR-ABL; Western blot 8E9, densitometer) was 35% and the “Expression of p185 BCR-ABL” value (P185 BCR-ABL; Western blot with anti-Abl monoclonal antibody) was “not significantly altered”. For the same substance, the “Reduction of Bcr-Abl level, antisense versus sense treated cells” value (P185 BCR-ABL; quantitation of FIG. 12) was “about 1.6 fold”, the “Growth density compared to sense oligonucleotide treatment” value (SUP-B15 cells [1]; RPMI 20% FCS, 10 μM, 9 days) was “sustained a higher growth density” and the “Live cells relative to sense treated cultures” value (SUP-B15 cells [1]; seven days in culture) was “twice”. The “Survival compared to sense oligonucleotide treatment” value (SUP-B15 cells [2]) was “increased survival”, the “Number of viable cells relative to sense-treated cells” value (SUP-B15 cells [2]; after five days of treatment) was “about twice” and the “Amount of p160 BCR/p185 BCR-ABL complexes” value [3] was “reduced”.
